Measurements taken from publication PMC7728077, “Double-Headed Cationic Lipopeptides: An Emerging Class of Antimicrobials” (International Journal of Molecular Sciences, 2020).
≈ marks a conversion by molar mass, not a printed value. Square brackets hold non-standard residues; d marks the D form. Peptide text beside a SMILES is read from it. * marks the point of attachment. Palmitoyl = CCCCCCCCCCCCCCCC(=O)*; Orn = NCCC[C@H](N)C(=O)O; Dab = NCC[C@H](N)C(=O)O; Dap = NC[C@H](N)C(=O)O

How the values were obtained:
[1] = tested on: Pseudomonas aeruginosa ATCC 9027; format: cell-based; details: ATCC 9027, 18 h
Description: (§1) Fmoc-Lys(Boc)-OH and the coupling reagents were purchased from GL Biochem (Shanghai, China). Palmitoyl Fmoc-amino acids: Fmoc-Lys(C16)-OH, Fmoc-Orn(C16)-OH, Fmoc-Dab(C16)-OH, and Fmoc-Dap(C16)-OH were acquired from Iris Biotech GmbH (Marktredwitz, Germany). The resin and solvents were purchases from Rapp Polymere (Tübingen, Germany), Merck (Darmstadt, Germany), and Avantor Performance Materials (Gliwice, Poland), respectively. The phospholipids, 1,2-dipalmitoyl-sn-glycero-3-phosphocholine (DPPC), 1,2-dipalmitoyl-sn-glycero-3-[phospho-rac-(1-glycerol)] (DPPG), 1-palmitoyl-2-oleoyl-glycero-3-phosphocholine (POPC) and 1-palmitoyl-2-oleoyl-sn-glycero-3-[phospho-rac-(1-glycerol)] (POPG), were purchased from Avanti Polar Lipids (Alabaster, AL, USA). LPS E. coli 055:B5 and phosphate buffered saline (PBS) were from Sigma-Aldrich (Steinheim, Germany). The Mueller Hinton broth was bought from BIOCORP (Warsaw, Poland) and the RPMI-1640 medium from Sigma-Aldrich (Steinheim, Germany). LIVE/DEAD™ BacLight™ Bacterial Viability Kit was obtained from Thermo Fisher Scientific (Waltham, MA, USA). Bacterial strains (Escherichia coli ATCC 25922, Pseudomonas aeruginosa ATCC 9027, Staphylococcus aureus ATCC 25923, Staphylococcus epidermidis ATCC 1922) and the fungal strain (Candida albicans ATCC 10231) were obtained from the Polish Collection of Microorganisms, Polish Academy of Science, Institute of Immunology and Experimental Therapy, Wroclaw, Poland.
(§2) Antimicrobial activity of the lipopeptides was determined according to the broth microdilution guidelines recommended by the Clinical and Laboratory Standards Institute (CLSI). Minimum inhibitory concentrations (MICs) were assumed as the lowest concentration of the peptide solution, at which the visible growth of microorganisms was inhibited. MIC values of lipopeptides against bacteria were evaluated in the Mueller–Hinton broth and against fungus in the RPMI-1640 medium. Initial inoculums of bacteria and fungus (with concentrations of 5 × 10^5 CFU/mL and 2 × 10^3 CFU/mL, respectively) were exposed to increasing concentrations of lipopeptides solutions over the range of 1–512 µg/mL. […] The 96-well plates filled with appropriate inoculums and the tested compounds were incubated for 18 h at 37 °C. Presented values are the mean of the results obtained in three independent experiments.

[2] = tested on: Staphylococcus epidermidis ATCC 1922; format: cell-based; details: ATCC 1922, 18 h
Description: as §1, §2

[3] = tested on: Escherichia coli ATCC 25922; format: cell-based; details: ATCC 25922, 18 h
Description: as §1, §2

[4] = tested on: Candida albicans ATCC 10231; format: cell-based; details: ATCC 10231, 18 h
Description: as §1, §2

[5] = tested on: Staphylococcus aureus ATCC 25923; format: cell-based; details: ATCC 25923, 18 h
Description: as §1, §2

[6] = tested on: 46BR.1N human skin fibroblasts cell line; format: cell-based
Protocol: (§3) Cytotoxicity was determined towards immortalized human HaCaT keratinocytes (DKFZ, Heidelberg, Germany), transformed human fibroblast cell line 46BR.1N (ECACC), as well as the human melanoma (A375), human lung cancer (A549), human colon cancer (HCT-116), human colon adenocarcinoma (HT-29), and human prostate cancer (LNCaP) cell lines. Keratinocytes and fibroblast cell lines were maintained in a humidified atmosphere with 5% CO2 at 37 °C in a Dulbecco’s modified Eagle’s medium (DMEM) (Sigma-Aldrich, Steinheim, Germany), which contained 4500 mg/L of glucose, 584 mg/L of L-glutamine, sodium pyruvate, and sodium bicarbonate. Additionally, the medium was supplemented with 10% of fetal bovine serum (FBS) (Sigma-Aldrich, Steinheim, Germany), 100 U/mL of penicillin, and 100 µg/mL of streptomycin (Sigma-Aldrich, Steinheim, Germany). The cells were grown in culture dishes (BD, Franklin Lakes, NJ, USA) and the medium was changed every 2 days. Afterwards, the fibroblasts and keratinocytes were harvested using a standard trypsin-EDTA solution, centrifuged, suspended in a medium supplemented with 10% FBS and seeded at a density of 5500–6000 cells per well into 96-well plates. After 24 h, the medium was exchanged with a serum- and antibiotic-free DMEM. The next day, serially diluted solutions of the lipopeptides prepared in a fresh FBS- and antibiotic-free medium were added to the wells. The potential cytotoxic effect of the compounds was analyzed over the concentration range of 1–25 µg/mL. After addition of the lipopeptides, cells were incubated for the next 24 h. At the end of the experiment, the cells were treated with 20 µL of MTT (5 mg/mL in PBS). After 3 h at 37 °C under 5% CO2, the medium was discarded and replaced by 6 mM HCl in isopropanol. As soon as the purple crystals of formazan were completely solubilized, absorbance was read at 570 nm with a plate reader. The optical density of the wells without the tested compounds were regarded as the positive control. The MTT assay was performed in triplicate for each cell line.
(§4) Determination of the half-maximum inhibitory concentrations (IC50) was done using GraphPad Prism 5 software (San Diego, CA, USA) based on the dose-response curves. The logarithm of the different concentrations of compounds was plotted against the percentage of inhibition in cell viability as compared with control probes, treated as 100%.

[7] = tested on: HaCaT human keratinocyte cell line; format: cell-based
Protocol: as §3, §4

[8] = tested on: LNCaP human prostate carcinoma; format: cell-based
Protocol: (§5) In the case of evaluation of cytotoxicity towards different types of the cancer cell lines (A375, A549, HCT-116, HT-29, and LNCaP, respective cells were seeded in 96-well plates (4500 cell/well) in the RPMI-1640 medium supplemented with 5% FBS without antibiotics and incubated for 24 h before stimulation with the lipopeptides. The next day, the cells were exposed to the effect of the serially diluted compounds added at concentrations ranging from 1 to 25 µg/mL for a period of 48 h. After the treatment, cells viability was evaluated by means of MTT assays, according to standard protocol, as just described. The experiment was repeated three times for each cell line.
as §4

[9] = tested on: A549 human epithelial lung carcinoma; format: cell-based
Protocol: as §5, §4

[10] = tested on: HT-29 human colorectal adenocarcinoma; format: cell-based
Protocol: as §5, §4

[11] = tested on: HCT-116 human colorectal carcinoma; format: cell-based
Protocol: as §5, §4

[12] = tested on: A375 human malignant melanoma cell line; format: cell-based
Protocol: as §5, §4

[13] = tested on: MCF-7 breast cancer cell line; format: cell-based, human
[14] = Analytical RP-HPLC retention time as measure of hydrophobicity; format: physicochemical; details: Jupiter 4 µ Proteo 90 Å 250 x 4.60 mm, linear gradient 15-90% B in A in 30 min, 1 ml/min, A 0.1% aqueous TFA, B 80% acetonitrile in water with 0.1% TFA
Protocol: The lipopeptides were purified in a Waters RP-HPLC preparative system (Jupiter 4 µ Proteo column, 90 Å, 250 × 10 mm) with the linear gradient of solution B in A from 30% to 60% (A, 0.1% solution of TFA in water and B, 80% solution of ACN in water containing 0.1% of TFA) in 40 min with a flow rate of 5 mL/min. Final purity of the analogues (at least 97%) was determined using an analytical RP-HPLC Shimadzu system (Jupiter 4 µ Proteo column, 90 Å, 250 × 4.60 mm) with the linear gradient of solution B in A from 15% to 90% in 30 min with a flow rate of 1 mL/min. Identity of lipopeptides was confirmed by MALDI-TOF mass spectrometry. Analytical data of the synthesized analogues are presented in Table S1 (Supplementary Materials). ^a linear gradient 15-90% of B in A for 30 min, flow rate 1 ml/min, RP-HPLC Shimadzu system, column: Jupiter 4 µ Proteo, 90 Å, 250 x 4.60 mm; A – 0.1% aqueous TFA solution, B – 80% solution of acetonitrile in water with 0.1% of TFA; ^b molecular masses were determined using MALDI-TOF mass spectrometer.

[15] = literature value used for comparison; cited from earlier work
Description: As expected, the critical aggregation concentration (CAC) values increased in the homologue series, i.e., Lys, Orn, Dab, and Dap, with a linear relationship of log CAC vs. number of methylene groups in the side chain of palmitoylated residue (Figure S3, Supplementary Materials). […] The modification of the acyl chain position separated the posi ...

| Molecule | MIC, P. aeruginosa [1] [µg/mL] | MIC, S. epidermidis [2] [µg/mL] | MIC, E. coli [3] [µg/mL] | MIC, C. albicans [4] [µg/mL] | MIC, S. aureus [5] [µg/mL] | IC50, 46BR.1N (24h) [6] [µg/mL] | IC50, HaCaT (24h) [7] [µg/mL] | IC50, LNCaP (48h) [8] [µg/mL] | IC50, A549 (48h) [9] [µg/mL] | IC50, HT-29 (48h) [10] [µg/mL] | IC50, HCT-116 (48h) [11] [µg/mL] | IC50, A375 (48h) [12] [µg/mL] | IC50, MCF-7 (48h) [13] [µg/mL] | Retention time (used as measure of hydrophobicity) [14] [min] | CAC of N-terminally palmitoylated peptide [15] [mM] |
| --- | --- | --- | --- | --- | --- | --- | --- | --- | --- | --- | --- | --- | --- | --- | --- |
| CCCCCCCCCCCCCCCC(=O)NC[C@H](NC(=O)[C@@H](N)CCCCN)C(=O)N[C@@H](CCCCN)C(N)=O [K(DapC16)K-NH2] (H-Lys-[Dap](Palmitoyl)-Lys-NH2) | 8 (≈ 13.4 µM) | 4 (≈ 6.69 µM) | 8 (≈ 13.4 µM) | 16 (≈ 26.8 µM) | 8 (≈ 13.4 µM) | 8.68 ± 1.00 (≈ 14.5 µM) | 7.25 ± 2.18 (≈ 12.1 µM) | 14.0 ± 0.41 (≈ 23.4 µM) | >25 | 20.24 ± 0.81 (≈ 33.9 µM) | 14.90 ± 0.30 (≈ 24.9 µM) | 11.63 ± 0.26 (≈ 19.5 µM) | 20.11 ± 2.51 (≈ 33.6 µM) | – | – |
| CCCCCCCCCCCCCCCC(=O)NCC[C@H](NC(=O)[C@H](CCCCN)NC(=O)[C@@H](N)CCCCN)C(=O)N[C@@H](CCCCN)C(=O)N[C@@H](CCCCN)C(N)=O [KK(DabC16)KK-NH2] (H-KK[Dab](Palmitoyl)KK-NH2) | 32 (≈ 36.9 µM) | 8 (≈ 9.21 µM) | 8 (≈ 9.21 µM) | 32 (≈ 36.9 µM) | 4 (≈ 4.61 µM) | 9.45 ± 2.13 (≈ 10.9 µM) | 16.95 ± 1.43 (≈ 19.5 µM) | >25 | >25 | 20.75 ± 0.42 (≈ 23.9 µM) | 16.74 ± 0.33 (≈ 19.3 µM) | >25 | >25 | – | – |
| CCCCCCCCCCCCCCCC(=O)NC[C@H](NC(=O)[C@H](CCCCN)NC(=O)[C@@H](N)CCCCN)C(=O)N[C@@H](CCCCN)C(=O)N[C@@H](CCCCN)C(N)=O [KK(DapC16)KK-NH2] (H-KK[Dap](Palmitoyl)KK-NH2) | 32 (≈ 37.5 µM) | 8 (≈ 9.37 µM) | 8 (≈ 9.37 µM) | 256 (≈ 300 µM) | 4 (≈ 4.68 µM) | 12.77 ± 1.32 (≈ 14.9 µM) | – | >25 | >25 | 24.68 ± 0.49 (≈ 28.9 µM) | 23.05 ± 0.92 (≈ 27 µM) | >25 | >25 | – | – |
| CCCCCCCCCCCCCCCC(=O)NCCC[C@H](NC(=O)[C@H](CCCCN)NC(=O)[C@@H](N)CCCCN)C(=O)N[C@@H](CCCCN)C(=O)N[C@@H](CCCCN)C(N)=O [KK(OC16)KK-NH2] (H-KK[Orn](Palmitoyl)KK-NH2) | 32 (≈ 36.3 µM) | 4 (≈ 4.53 µM) | 8 (≈ 9.07 µM) | 32 (≈ 36.3 µM) | 8 (≈ 9.07 µM) | 8.21 ± 1.12 (≈ 9.31 µM) | 16.65 ± 2.29 (≈ 18.9 µM) | >25 | >25 | 19.36 ± 0.58 (≈ 21.9 µM) | 14.90 ± 0.75 (≈ 16.9 µM) | >25 | >25 | 21.328 | – |
| C16-KKK-NH2 [Peptide C16-KKK-NH2] | – | – | – | – | – | – | – | – | – | – | – | – | – | – | 4.8 |
